The assay addresses T1, BtsS (YehU) (Escherichia coli, UniProt P0AD14).
T1 construct: full-length BtsS-6His in membrane vesicles
The assay can be described thus: DRaCALA with […]-pyruvate on BtsS membrane vesicles, competition with cold pyruvate. It is filed as binding.

SMILES strings stand for the structures.

T1 sequence (P0AD14 whole entry): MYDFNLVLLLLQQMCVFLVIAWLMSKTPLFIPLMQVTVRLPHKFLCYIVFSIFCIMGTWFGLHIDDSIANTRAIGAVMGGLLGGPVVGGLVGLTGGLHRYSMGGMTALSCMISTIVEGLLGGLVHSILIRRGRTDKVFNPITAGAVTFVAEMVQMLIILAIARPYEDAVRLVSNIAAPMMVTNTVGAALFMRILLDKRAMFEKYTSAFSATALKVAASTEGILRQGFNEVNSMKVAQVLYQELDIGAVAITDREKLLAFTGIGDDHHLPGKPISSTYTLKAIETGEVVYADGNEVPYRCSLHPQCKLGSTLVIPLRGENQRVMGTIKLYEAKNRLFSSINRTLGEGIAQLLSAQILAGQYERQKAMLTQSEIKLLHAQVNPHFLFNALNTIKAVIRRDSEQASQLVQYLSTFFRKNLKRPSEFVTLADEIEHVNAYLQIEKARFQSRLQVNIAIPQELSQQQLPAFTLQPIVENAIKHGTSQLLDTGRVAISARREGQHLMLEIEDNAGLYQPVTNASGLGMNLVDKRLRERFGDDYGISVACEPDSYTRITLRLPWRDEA

The compound `CC(=O)C(=O)O` [pyruvate] displayed a Kd of 58.6 ± 8.8 µM.

By Kd is commonly meant the equilibrium constant for the complex coming apart.

The values above are taken from paper PMC5431176, “Identification of a High-Affinity Pyruvate Receptor in Escherichia coli” (Scientific Reports, 2017).
